Assay results from article PMC9688475, “Identification and Analysis of Small Molecule Inhibitors of CRISPR-Cas9 in Human Cells” (Cells, 2022).
One block for each molecule: values may come before it.

Columns and labels:
XbaI = XbaI in vitro cleavage assay; type: biochemical; conditions: compound 200 μM
Experimental: (§1) In vitro cleavage experiments used commercial restriction enzymes (Thermo Fisher Scientific). The restriction enzyme NotI or XbaI (0.1 μL) was mixed with the compounds in a FastDigest buffer (Thermo Fisher Scientific). It was then incubated at room temperature for 10 min, and an ApaI-linearized px458 plasmid was added and reacted at 37 °C for 15 min. The samples were mixed with a DNA loading buffer. The cleavage products were electrophoresed on 1% TAE agarose gel and imaged using a Bio-Rad gel imager.

NotI = NotI in vitro cleavage assay; type: biochemical; conditions: compound 200 μM
Experimental: as §1

[1] = system: EGFP expression in uninduced reporter 293T cells; test: EGFP expression in uninduced reporter 293T cells; type: cell-based, human; conditions: for effect on EGFP expression in uninduced cells: 40 μM
Experimental: The reporter 293T cells were seeded into 96-well plates at a density of 10,000 cells per well and cultured overnight before the addition of DMSO alone or various compounds (in DMSO solution) at appropriate concentrations (0.125–100 μM) with or without 2 μg/mL doxycycline for an additional 72 h of incubation. The cells were then harvested for analysis with the CytoFLEX flow cytometer (Beckman Coulter, Brea, CA, USA) or analyzed by western blot with antibodies as indicated. […] The inhibiting efficiency in reporter 293T cells was calculated using the following equation: E’ = (P2 − P1)/(P0 − P1) × 100%, where E’ is the inhibiting efficiency in reporter 293T cells, and P0, P1, and P2 are the GFP positive cell ratio of the uninduced group, Dox and DMSO treated control group, and Dox and compound treated group, respectively.

SpCas9 [2] = molecular target: T1, SpCas9 (Streptococcus pyogenes serotype M1, UniProt Q99ZW2); test: SpCas9 in vitro DNA cleavage assay; type: biochemical; design: His6 (N); TEV site (N); made in house; host or cells: E. coli BL21 Star (DE3)
T1 sequence (Q99ZW2 whole entry): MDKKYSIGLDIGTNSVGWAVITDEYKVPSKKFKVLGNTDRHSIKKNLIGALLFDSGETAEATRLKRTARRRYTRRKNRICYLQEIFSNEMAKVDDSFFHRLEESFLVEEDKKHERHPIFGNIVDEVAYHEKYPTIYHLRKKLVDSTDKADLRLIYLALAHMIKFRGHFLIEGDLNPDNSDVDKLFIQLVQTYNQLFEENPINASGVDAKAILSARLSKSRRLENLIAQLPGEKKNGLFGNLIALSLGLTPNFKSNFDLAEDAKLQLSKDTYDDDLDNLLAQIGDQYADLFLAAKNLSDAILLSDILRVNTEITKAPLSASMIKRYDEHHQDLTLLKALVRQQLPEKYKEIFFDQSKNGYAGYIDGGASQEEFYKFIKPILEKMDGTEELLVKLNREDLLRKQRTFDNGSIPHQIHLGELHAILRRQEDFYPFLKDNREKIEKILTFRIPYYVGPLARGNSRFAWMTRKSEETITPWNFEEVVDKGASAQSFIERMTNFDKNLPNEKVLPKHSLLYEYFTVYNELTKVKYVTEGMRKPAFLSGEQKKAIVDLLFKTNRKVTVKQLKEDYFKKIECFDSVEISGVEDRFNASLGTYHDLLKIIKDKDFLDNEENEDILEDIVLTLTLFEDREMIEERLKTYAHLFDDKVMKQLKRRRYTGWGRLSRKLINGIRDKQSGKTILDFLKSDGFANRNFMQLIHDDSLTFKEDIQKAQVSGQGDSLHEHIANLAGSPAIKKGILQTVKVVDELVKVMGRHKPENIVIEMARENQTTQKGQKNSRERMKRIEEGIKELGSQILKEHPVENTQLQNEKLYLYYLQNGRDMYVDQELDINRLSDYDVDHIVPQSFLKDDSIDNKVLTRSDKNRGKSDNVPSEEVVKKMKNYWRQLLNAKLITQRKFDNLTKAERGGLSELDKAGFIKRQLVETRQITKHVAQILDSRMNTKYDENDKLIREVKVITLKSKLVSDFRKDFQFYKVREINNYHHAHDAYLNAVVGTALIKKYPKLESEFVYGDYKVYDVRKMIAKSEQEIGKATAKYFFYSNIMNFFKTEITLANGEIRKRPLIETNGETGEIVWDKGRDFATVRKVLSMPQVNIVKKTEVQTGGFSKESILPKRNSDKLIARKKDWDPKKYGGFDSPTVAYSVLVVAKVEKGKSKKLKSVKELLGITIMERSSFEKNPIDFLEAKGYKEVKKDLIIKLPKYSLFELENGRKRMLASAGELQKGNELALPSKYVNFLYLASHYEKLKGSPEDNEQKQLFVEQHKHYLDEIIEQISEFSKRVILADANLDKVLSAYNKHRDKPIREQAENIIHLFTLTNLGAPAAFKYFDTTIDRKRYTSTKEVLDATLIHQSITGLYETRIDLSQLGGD
Experimental: The assay was carried out in NEBuffer 3 (New England Biolabs, Ipswich, MA, USA). First, 19.2 μL of the SpCas9–gRNA (58.8 nM) mixture was incubated with 2.4 μL of various compounds (dissolved in DMSO) at desired concentrations (0.1–2 mM) at room temperature for 10 min. Then, 2.4 μL of 3.48 nM ApaI-linearized px458 plasmid was added for further incubation at 37 °C for 60 min. The reaction was terminated by adding 0.5 μL Proteinase K (20 mg/mL) (Invitrogen) and incubation at 55 °C for 15 min. The reaction products were resolved on a 0.7% TAE agarose gel, stained with Gel Red (Biotium, Fremont, CA, USA). Then the products were visualized by Chemidoc XRS plus system (Bio-Rad, Hercules, CA, USA), and band intensities were quantified using ImageJ software (National Institutes of Health developed; Bethesda, MD, USA). The inhibition efficiency in the cleavage assays was calculated using the following equation: E = (C1 − C2)/C1 × 100%, where E is the inhibition efficiency, and C1 and C2 are the cleavage rate of the DMSO group and compound treated group, respectively.
The cleavage rate was calculated using the following equation:C = (B1 + B2)/(B0 + B1 + B2) × 100%, where C is the cleavage rate, B0, B1, and B2 are the band intensities of uncleaved products, upper cleaved products, and lower cleaved products, respectively.

SpCas9 [3] = molecular target: T1, SpCas9; test: Inhibition of SpCas9 nuclease activity in EGFP/iCas9/gRNA-EGFP reporter 293T cells (flow cytometry); type: cell-based; design: expressed in transfected cells; host or cells: H2AX-EGFP HEK293T cells, lentiviral transduction, doxycycline-induced
Excerpt: The H2AX-EGFP 293T cell line was first generated using the previously reported MMEJ-mediated CRIS-PITCh system. Briefly, we cloned two gRNAs (Supplementary Table S3) that respectively target H2AX gene and the PITCh vector into the px330 plasmid (Addgene, #42230). The PITCh vector contains a pair of 20-bp homologous sequences targeting the upstream and downstream regions of the H2AX gRNA cleavage site, and the SFB-EGFP expression cassette. The three plasmids were co-transfected into 293T cells at an equimolar ratio. GFP-positive cells were sorted by FACS and individually expanded to isolate single clones for genomic DNA extraction and PCR verification of successful knock-in (KI) of the SFB-EGFP cassette into 5′-end of first exon of the H2AX gene. The selected H2AX-EGFP 293T cell clone was subsequently infected with lentiviruses encoding tetracycline-inducible SpCas9 (iCas9). After drug selection, individual clones were again expanded and verified for inducible Cas9 expression. The selected clone was subsequently infected with lentivirus encoding a gRNA that targets EGFP. Puromycin-resistant clones ([…], Thermo Fisher Scientific) were then isolated after >7 days for further analysis.

[4] = system: Streptococcus pyogenes Cas9 (SpCas9); conditions: inhibits SpCas9 by blocking its binding to DNA; ref [33]; cited from earlier work

Molecule: 1-(2-(4-nitrophenyl) hydrazono)-4-bromo-acetophenone [C12]
- activity of XbaI (XbaI): not affected
- activity of NotI (NotI): not affected
- effect on EGFP expression in the absence of Dox induction ([1]; 100 μM, reporter cells, no Dox): no effects
- inhibition rate, in vitro SpCas9 cleavage (SpCas9 [2]; compound 200 μM, SpCas9–gRNA 58.8 nM, linearized plasmid 3.48 nM): 84%
- efficiency of SpCas9 inhibition in reporter cells (SpCas9 [3]; 100 μM, Dox 2 μg/mL, 72 h): 17.1%

- melting point: 190.3 to 191.7 °C
Molecule: CCC(=O)C=NNc1ccc([N+](=O)[O-])cc1 [C9, 1-(2-(4-nitrophenyl) hydrazono)butanone]

Molecule: O=C(C=NNc1ccc(Cl)cc1)c1ccc(Br)cc1 [C12b, 1-(4-bromophenyl)-2-(2-(4-chlorophenyl)hydrazono)ethanone]
- melting point: 235.2 to 237.2 °C
- inhibitory activity in in vitro SpCas9 cleavage (in words) (SpCas9 [2]; compound 200 μM): strong inhibitory activities
- inhibition at 200 µM (SpCas9 [2]; read-out: inhibition rate, in vitro SpCas9 cleavage): 89%

Molecule: O=C(C=NNc1cc([N+](=O)[O-])ccc1O)c1ccc(Br)cc1 [C12c, 1-(4-bromophenyl)-2-(2-(2-hydroxy-5-nitrophenyl)hydrazono)ethanone]
- effect on EGFP expression in uninduced reporter 293T cells ([1]; uninduced, concentration not given): did not negatively affect
- melting point: 246.6 to 247.2 °C
- inhibitory activity in in vitro SpCas9 cleavage (in words) (SpCas9 [2]; compound 200 μM): weakly inhibited
- inhibition at 40 µM (SpCas9 [3]; HEK-293T, read-out: SpCas9 inhibition in reporter cells): ~50%

Molecule: O=C(C(=NNc1ccc([N+](=O)[O-])cc1)n1cncn1)c1ccc(F)cc1F [C12d, 1-(2,4-difluorophenyl)-2-(2-(4-nitrophenyl)hydrazono)-2-(1H-1,2,4-triazol-1-yl)ethanone]
- inhibitory activity in in vitro SpCas9 cleavage (in words) (SpCas9 [2]; compound 200 μM): weakly inhibited

Molecule: O=C1CCCC/C1=N/Nc1ccc(N2CCCCC2)cc1 [SP5]
- SpCas9 inhibition in reporter cells (SpCas9 [3]; 40 μM, Dox 2 μg/mL, 72 h): less than 50%

Molecule: O=C1CCCC/C1=N\Nc1ccc([N+](=O)[O-])cc1 [SP6]
- SpCas9 inhibition in reporter cells (SpCas9 [3]; 40 μM, Dox 2 μg/mL, 72 h): less than 50%

Molecule: COc1ccc(C(=O)Oc2ccccc2/C=N\Nc2ccc([N+](=O)[O-])cc2)cc1 [SP8]
- SpCas9 inhibition in reporter cells (SpCas9 [3]; 40 μM, Dox 2 μg/mL, 72 h): less than 50%

Molecule: O=C1CCCC/C1=N/Nc1ccc(OC2CCCCC2)cc1 [SP9]
- SpCas9 inhibition in reporter cells (SpCas9 [3]; 10 μM, Dox 2 μg/mL, 72 h): less than 50%
- SpCas9 inhibition in reporter cells (SpCas9 [3]; 40 μM, Dox 2 μg/mL, 72 h): > 50%

Molecule: CCCCOC(=O)c1ccc(NN=c2c(=O)c3ccccc3c2=O)cc1 [SP11]
- SpCas9 inhibition in reporter cells (SpCas9 [3]; 40 μM, Dox 2 μg/mL, 72 h): less than 50%

Molecule: Cc1cccc(N/N=C(/C#N)C(=O)c2ccc(Br)cc2)c1 [SP12]
- SpCas9 inhibition in reporter cells (SpCas9 [3]; 10 μM, Dox 2 μg/mL, 72 h): less than 50%
- SpCas9 inhibition in reporter cells (SpCas9 [3]; 40 μM, Dox 2 μg/mL, 72 h): > 50%

Molecule: COc1ccc(C(=O)/C(C#N)=N/Nc2ccccc2[N+](=O)[O-])cc1 [SP14]
- effect on EGFP expression in uninduced cells ([1]; uninduced): reduce EGFP expression (albeit slightly)
- SpCas9 inhibition in reporter cells (SpCas9 [3]; 10 μM, Dox 2 μg/mL, 72 h): 50%

Molecule: Cc1ccc(C(=O)/C(C#N)=N\Nc2ccc([N+](=O)[O-])cc2)cc1 [SP15]
- effect on EGFP expression in uninduced cells ([1]; uninduced): reduce EGFP expression (albeit slightly)
- SpCas9 inhibition in reporter cells (SpCas9 [3]; 10 μM, Dox 2 μg/mL, 72 h): 50%

Molecule: O=C1CCCC/C1=N\Nc1ccc(OCc2ccccc2)cc1 [SP19]
- SpCas9 inhibition in reporter cells (SpCas9 [3]; 40 μM, Dox 2 μg/mL, 72 h): less than 50%

Molecule: COc1cc(Cl)ccc1N=NC1C(=O)N(c2ccccc2)N=C1C (stereo not drawn) [SP28]
- SpCas9 inhibition in reporter cells (SpCas9 [3]; 40 μM, Dox 2 μg/mL, 72 h): less than 50%

Molecule: CC1=NN(c2ccccc2)C(=O)C1N=Nc1nc2ccccc2s1 (stereo not drawn) [SP29]
- effect on EGFP expression in uninduced cells ([1]; uninduced): reduce EGFP expression (albeit slightly)
- SpCas9 inhibition in reporter cells (SpCas9 [3]; 10 μM, Dox 2 μg/mL, 72 h): 50%

Molecule: O=C(Oc1ccc(/C=N/Nc2ccccc2)cc1)c1cc([N+](=O)[O-])cc([N+](=O)[O-])c1 [SP32]
- SpCas9 inhibition in reporter cells (SpCas9 [3]; 10 μM, Dox 2 μg/mL, 72 h): less than 50%
- SpCas9 inhibition in reporter cells (SpCas9 [3]; 40 μM, Dox 2 μg/mL, 72 h): > 50%

Molecule: Cc1nc2ccc(N=NC3=C(O)CCCC3=O)cc2s1 [SP33]
- SpCas9 inhibition in reporter cells (SpCas9 [3]; 40 μM, Dox 2 μg/mL, 72 h): less than 50%

Molecule: CCOC(=O)c1oc2c(c1C)/C(=N\Nc1ccc([N+](=O)[O-])cc1)CCC2 [SP34]
- SpCas9 inhibition in reporter cells (SpCas9 [3]; 40 μM, Dox 2 μg/mL, 72 h): less than 50%

Molecule: CC1(C)CC(=O)C(N=Nc2ccc3ncsc3c2)=C(O)C1 [SP36]
- SpCas9 inhibition in reporter cells (SpCas9 [3]; 40 μM, Dox 2 μg/mL, 72 h): less than 50%

Molecule: BRD0539
- IC50 [4]: 22 µM
